These results are taken from ChEMBL document CHEMBL6121021, “Design and Synthesis of Topoisomerases-Histone Deacetylase Dual Targeted Quinoline-Bridged Hydroxamates as Anticancer Agents” (J Med Chem, 2025).

The test system of series [1] is A549. Nature of the series: Induction of cell cycle arrest in human A549 cells assessed as accumulation at G1 phase by PI staining based flow cytometry. In kind it is functional. (In flow cytometry, cells or beads pass a laser one at a time.)
Series [2] deals with MDA-MB-231. Nature of the series: Anti-cancer activity against human MDA-MB-231 cells assessed as decrease in p21 level at higher concentration incubated for 48 hrs by immunoblot analysis. In kind it is functional, cell-based.
Series [3] has as its system A549. Briefly: Induction of cell cycle arrest in human A549 cells assessed as accumulation at G2/M phase by PI staining based flow cytometry. Format: functional.
For series [4], the system named is MDA-MB-231. Briefly: Anti-cancer activity against human MDA-MB-231 cells assessed as decrease in p53 level at 10 uM incubated for 48 hrs by immunoblot analysis. In kind it is functional, cell-based.
Series [5] concerns MDA-MB-231. Nature of the series: Anti-cancer activity against human MDA-MB-231 cells assessed as decrease in p53 level at 1 to 5 uM incubated for 48 hrs by immunoblot analysis. Format: functional, cell-based. Conditions: dose 1-5 µM. In general terms: Immunoblotting shows a protein as a band on a membrane.
Series [6] relates to MDA-MB-231. Briefly: Anti-cancer activity against human MDA-MB-231 cells assessed as decrease in PCNA level at 10 uM incubated for 48 hrs by immunoblot analysis. Format: functional, cell-based.
Series [7] has as its system MDA-MB-231. Briefly: Anti-cancer activity against human MDA-MB-231 cells assessed as decrease in CDK-4 level at 10 uM incubated for 48 hrs by immunoblot analysis. In kind it is functional, cell-based.
Series [8] relates to MDA-MB-231. Briefly: Anti-cancer activity against human MDA-MB-231 cells assessed as decrease in p21 level at 1 uM incubated for 48 hrs by immunoblot analysis. Format: functional, cell-based.
The next series concerns HEK293. Briefly: Antiproliferative activity against HEK293 cells at 10 uM incubated for 48 hrs by MTT assay. Format: toxicity, cell-based. Conditions: human, hek293, 48 h. Background: Formazan colour is commonly taken as a measure of viable cells.
Series [9] relates to A549. Nature of the series: Induction of apoptosis in human A549 cells at 500 nM by Annexin-V/PI staining based flow cytometry. Format: functional, cell-based.
The next series concerns the target Cytochrome P450 2C19 (Homo sapiens, UniProt P33261). Nature of the series: Inhibition of CYP2C19 in human liver microsomes preincubated for 10 mins followed by NADPH addition measured after 5 mins by LC-MS/MS analysis. In kind it is ADME, Microsome.
Series [10] in a line: Toxicity in athymic nude Crl:NU-Foxn1nu mouse xenografted with human A549 cells assessed as animal survival at 30 mg/kg, po administered twice a week for 1 month. Format: organism-based. To be noted: in vivo, 730 h, time 1 months.
Series [11] can be described thus: Antiproliferative activity against human NCI-H1975 cells harboring EGFR T790M mutant incubated for 48 hrs by MTT assay. Format: functional, cell-based. Conditions: NCI-H1975, 48 h.
In the next series the target is Histone deacetylase 9 (Homo sapiens, UniProt Q9UKV0). Briefly: Inhibition of His-tagged recombinant human HDAC9 by fluorogenic assay.
Another series deals with Histone deacetylase 4 (Homo sapiens, UniProt P56524). Nature of the series: Inhibition of His/GST-tagged recombinant human HDAC4 by fluorogenic assay.
Series [12] is described as follows: Drug metabolism in human hepatocytes assessed as O-dealkylation M5 metabolite formation at 10 uM by LC-MS/MS analysis. In kind it is ADME, cell-based, Hepatocyte.
The next series addresses Histone deacetylase 5 (Homo sapiens, UniProt Q9UQL6). Briefly: Inhibition of His-tagged recombinant human HDAC5 catalytic domain by fluorogenic assay.
Series [13] has as its system A549. Nature of the series: In vivo anti-migratory activity in human A549 cells xenografted in athymic nude Crl:NU-Foxn1nu mouse assessed as decrease in vimentin mRNA level at 30 mg/kg, po administered twice a week for 1 month by qPCR analysis. To be noted: time 1.0 months. Format: functional, organism-based.
Series [14] concerns the target DNA topoisomerase 2-alpha (Homo sapiens, UniProt P11388). Briefly: Inhibition of human Topo II-alpha-mediated decatenation of kDNA incubated for 30 mins.
Series [15] is described as follows: Antiproliferative activity against human PBMC cells at 10 uM incubated for 48 hrs by MTT assay. In kind it is toxicity, cell-based.
Series [16] relates to A549. Briefly: In vivo anti-metastatic activity in human A549 cells xenografted in athymic nude Crl:NU-Foxn1nu mouse assessed as decrease in ZEB1 mRNA level at 30 mg/kg, po administered twice a week for 1 month by qPCR analysis. To be noted: time 1.0 months. In kind it is functional, organism-based.
The subject of series [17] is MDA-MB-231. Briefly: Anti-cancer activity against human MDA-MB-231 cells assessed as decrease in p53 level at 5 to 10 uM incubated for 48 hrs by immunoblot analysis. In kind it is functional, cell-based. Conditions: dose 5-10 µM.
In series [18] the test system is A549. Briefly: In vivo induction of apoptosis in human A549 cells xenografted in athymic nude Crl:NU-Foxn1nu mouse assessed as increase in Bax level at 30 mg/kg, po administered twice a week for 1 month by immunoblot analysis. Format: functional, organism-based. Conditions: time 1.0 months.
For series [19], the system named is A549. Briefly: Induction of cell cycle arrest in human A549 cells assessed as accumulation at G2/M phase at 500 nM by PI staining based flow cytometry. In kind it is functional.
Series [20] concerns MDA-MB-231. Nature of the series: Anti-cancer activity against human MDA-MB-231 cells assessed as decrease in p53 level at 1 to 3 uM incubated for 48 hrs by immunoblot analysis. In kind it is functional, cell-based. Conditions: dose 1-3 µM.
Series [21] concerns A549. Nature of the series: Induction of mitophagy in human A549 cells at 500 nM by MitoTracker Green dye based analysis. Format: functional, cell-based.
Series [22] can be described thus: Metabolic stability in mouse hepatocytes assessed as hepatic clearance at 2 uM measured upto 120 min by LC-MS/MS analysis. In kind it is ADME, cell-based, Hepatocyte.
For series [23], the system named is A549. Briefly: Induction of cell cycle arrest in human A549 cells assessed as accumulation at G1 phase at 500 nM by PI staining based flow cytometry. Format: functional.

Activity calls are given as the source filed them. No cut-off for these calls is given here.

Sequence of Histone deacetylase 5 (Q9UQL6 whole entry, the tested form may be a part): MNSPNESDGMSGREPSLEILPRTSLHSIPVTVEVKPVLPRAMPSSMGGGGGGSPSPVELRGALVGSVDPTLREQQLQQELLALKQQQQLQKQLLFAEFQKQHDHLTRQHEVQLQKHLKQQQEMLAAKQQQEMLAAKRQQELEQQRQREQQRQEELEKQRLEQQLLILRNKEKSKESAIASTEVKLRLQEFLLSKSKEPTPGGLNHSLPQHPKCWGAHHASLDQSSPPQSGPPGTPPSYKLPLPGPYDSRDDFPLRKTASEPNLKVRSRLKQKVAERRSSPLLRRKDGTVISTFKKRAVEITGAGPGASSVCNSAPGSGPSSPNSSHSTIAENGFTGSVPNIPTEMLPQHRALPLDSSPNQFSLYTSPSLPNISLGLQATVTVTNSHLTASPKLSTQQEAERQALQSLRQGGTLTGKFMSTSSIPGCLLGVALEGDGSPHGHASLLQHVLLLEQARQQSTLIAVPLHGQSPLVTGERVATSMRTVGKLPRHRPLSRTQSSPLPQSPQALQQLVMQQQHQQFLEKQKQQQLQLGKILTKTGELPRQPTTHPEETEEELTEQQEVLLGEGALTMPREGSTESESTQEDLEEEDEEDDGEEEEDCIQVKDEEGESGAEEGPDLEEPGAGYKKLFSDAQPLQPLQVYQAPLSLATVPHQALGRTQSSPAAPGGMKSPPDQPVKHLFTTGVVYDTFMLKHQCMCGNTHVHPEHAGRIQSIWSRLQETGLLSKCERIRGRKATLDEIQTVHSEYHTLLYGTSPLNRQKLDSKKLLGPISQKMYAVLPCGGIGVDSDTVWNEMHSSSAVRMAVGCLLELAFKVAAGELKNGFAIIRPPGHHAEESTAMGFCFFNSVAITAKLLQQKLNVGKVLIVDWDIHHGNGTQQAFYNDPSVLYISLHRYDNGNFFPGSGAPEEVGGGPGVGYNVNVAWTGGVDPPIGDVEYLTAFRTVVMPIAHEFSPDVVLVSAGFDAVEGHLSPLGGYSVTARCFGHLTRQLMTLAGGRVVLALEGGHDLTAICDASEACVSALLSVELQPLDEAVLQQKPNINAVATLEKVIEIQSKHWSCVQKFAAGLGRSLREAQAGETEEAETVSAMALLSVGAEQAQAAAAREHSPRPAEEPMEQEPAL
Sequence of DNA topoisomerase 2-alpha (P11388 whole entry): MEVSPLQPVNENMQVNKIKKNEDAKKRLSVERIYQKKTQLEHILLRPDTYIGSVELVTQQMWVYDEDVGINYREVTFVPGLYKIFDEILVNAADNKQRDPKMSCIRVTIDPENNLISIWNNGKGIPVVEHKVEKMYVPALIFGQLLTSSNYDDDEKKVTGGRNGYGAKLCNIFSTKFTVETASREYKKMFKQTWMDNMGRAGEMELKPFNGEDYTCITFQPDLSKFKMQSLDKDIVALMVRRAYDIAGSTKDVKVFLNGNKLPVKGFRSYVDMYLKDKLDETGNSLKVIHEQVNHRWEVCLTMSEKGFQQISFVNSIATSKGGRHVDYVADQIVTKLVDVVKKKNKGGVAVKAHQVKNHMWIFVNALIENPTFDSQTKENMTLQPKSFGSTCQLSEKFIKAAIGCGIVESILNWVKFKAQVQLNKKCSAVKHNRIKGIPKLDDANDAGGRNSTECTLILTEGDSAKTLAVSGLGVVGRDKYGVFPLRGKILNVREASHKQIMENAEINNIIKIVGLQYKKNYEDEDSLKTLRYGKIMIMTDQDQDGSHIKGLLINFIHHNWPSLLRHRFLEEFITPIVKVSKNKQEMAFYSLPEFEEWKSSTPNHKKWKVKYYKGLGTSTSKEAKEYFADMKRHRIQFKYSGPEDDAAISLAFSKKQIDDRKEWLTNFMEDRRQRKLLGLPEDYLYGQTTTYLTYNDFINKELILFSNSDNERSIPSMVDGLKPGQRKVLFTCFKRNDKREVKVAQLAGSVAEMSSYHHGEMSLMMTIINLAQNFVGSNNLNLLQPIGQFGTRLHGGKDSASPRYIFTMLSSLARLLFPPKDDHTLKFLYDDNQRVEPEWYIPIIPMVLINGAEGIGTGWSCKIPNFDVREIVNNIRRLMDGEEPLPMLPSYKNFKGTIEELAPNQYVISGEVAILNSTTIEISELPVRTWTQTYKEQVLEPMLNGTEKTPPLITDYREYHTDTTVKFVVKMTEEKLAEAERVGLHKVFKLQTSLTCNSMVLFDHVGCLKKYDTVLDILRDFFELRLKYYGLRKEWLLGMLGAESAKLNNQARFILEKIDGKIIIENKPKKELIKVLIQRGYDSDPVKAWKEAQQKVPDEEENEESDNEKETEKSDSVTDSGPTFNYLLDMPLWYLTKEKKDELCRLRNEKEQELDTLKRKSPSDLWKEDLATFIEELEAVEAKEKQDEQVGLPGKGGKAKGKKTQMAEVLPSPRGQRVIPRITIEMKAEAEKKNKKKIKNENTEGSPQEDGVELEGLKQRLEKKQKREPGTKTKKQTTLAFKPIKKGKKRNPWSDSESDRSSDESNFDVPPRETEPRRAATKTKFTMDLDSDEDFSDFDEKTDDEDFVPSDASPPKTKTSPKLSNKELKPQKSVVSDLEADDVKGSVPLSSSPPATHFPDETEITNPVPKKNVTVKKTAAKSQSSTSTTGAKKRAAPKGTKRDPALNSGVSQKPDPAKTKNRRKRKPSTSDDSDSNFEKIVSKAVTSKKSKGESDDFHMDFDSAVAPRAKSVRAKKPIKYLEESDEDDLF
Sequence of Cytochrome P450 2C19 (P33261 whole entry): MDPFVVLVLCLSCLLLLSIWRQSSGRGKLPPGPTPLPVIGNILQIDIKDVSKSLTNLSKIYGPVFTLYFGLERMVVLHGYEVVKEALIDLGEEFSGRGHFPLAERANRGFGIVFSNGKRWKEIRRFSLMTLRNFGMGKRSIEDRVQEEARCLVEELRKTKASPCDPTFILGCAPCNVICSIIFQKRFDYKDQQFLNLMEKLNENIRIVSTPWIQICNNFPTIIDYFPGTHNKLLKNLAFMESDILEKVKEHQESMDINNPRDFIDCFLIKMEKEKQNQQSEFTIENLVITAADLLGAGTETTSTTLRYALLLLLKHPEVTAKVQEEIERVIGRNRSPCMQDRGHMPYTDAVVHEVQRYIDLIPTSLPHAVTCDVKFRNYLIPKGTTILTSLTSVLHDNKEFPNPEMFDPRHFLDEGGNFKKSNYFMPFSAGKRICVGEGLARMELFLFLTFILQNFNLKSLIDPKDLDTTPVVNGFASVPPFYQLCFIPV
Sequence of Histone deacetylase 4 (P56524 whole entry): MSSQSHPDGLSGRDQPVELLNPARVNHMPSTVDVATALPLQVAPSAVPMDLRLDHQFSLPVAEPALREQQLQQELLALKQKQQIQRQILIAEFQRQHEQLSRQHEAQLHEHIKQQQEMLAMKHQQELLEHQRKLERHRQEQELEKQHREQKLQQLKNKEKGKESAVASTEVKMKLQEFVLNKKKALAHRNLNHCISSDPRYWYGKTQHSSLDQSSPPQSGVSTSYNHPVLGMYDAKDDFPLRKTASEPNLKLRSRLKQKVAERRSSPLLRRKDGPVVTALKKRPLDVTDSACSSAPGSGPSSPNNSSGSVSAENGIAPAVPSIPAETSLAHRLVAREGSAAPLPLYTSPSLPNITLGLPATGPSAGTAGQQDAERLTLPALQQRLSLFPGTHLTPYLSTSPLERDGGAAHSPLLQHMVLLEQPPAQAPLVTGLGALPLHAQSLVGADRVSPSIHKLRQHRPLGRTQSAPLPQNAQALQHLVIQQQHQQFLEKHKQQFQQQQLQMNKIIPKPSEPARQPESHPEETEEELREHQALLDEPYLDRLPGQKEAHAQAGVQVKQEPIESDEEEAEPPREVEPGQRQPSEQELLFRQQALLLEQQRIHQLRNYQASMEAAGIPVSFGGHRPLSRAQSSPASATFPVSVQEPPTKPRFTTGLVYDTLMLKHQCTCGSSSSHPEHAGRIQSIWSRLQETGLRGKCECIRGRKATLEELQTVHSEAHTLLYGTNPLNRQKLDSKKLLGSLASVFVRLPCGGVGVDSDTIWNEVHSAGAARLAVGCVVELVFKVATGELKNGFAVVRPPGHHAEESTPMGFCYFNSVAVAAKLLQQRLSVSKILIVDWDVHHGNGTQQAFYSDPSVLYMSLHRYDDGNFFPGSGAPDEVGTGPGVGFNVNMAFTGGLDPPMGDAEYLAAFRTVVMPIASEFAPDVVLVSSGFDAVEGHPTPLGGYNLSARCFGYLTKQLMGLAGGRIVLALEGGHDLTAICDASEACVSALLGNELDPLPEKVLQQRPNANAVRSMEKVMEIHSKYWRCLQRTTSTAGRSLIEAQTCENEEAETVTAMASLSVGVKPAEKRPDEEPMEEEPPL

Turning to `COc1ccc(-c2ccc3ccc(OCCCCCCC(=O)NO)cc3n2)cc1I`, the result in the series with A549 [1], in the series on MDA-MB-231 [2], in the series with A549 [3], in the series on MDA-MB-231 [5], in the series on MDA-MB-231 [6] and in the series with MDA-MB-231 [7] was Active. The outcome in the series on MDA-MB-231 [4] and in the series with MDA-MB-231 [8] was inactive.
The term IC50 denotes the concentration that gives 50% inhibition. Turning to `COc1ccc(-c2ccc3cc(OCCCCCC(=O)NO)ccc3n2)cc1`, the Activity entry (with HEK293; in [10]; in [15]) was “Non-toxic” each time. Moreover, the outcome in the series with A549 [9], in the series on A549 [13], with A549 [16], with A549 [18], in the series on A549 [19] and in the series with MDA-MB-231 [20] was Active. Further, the result in the series on A549 [21] and with A549 [23] was Active. The IC50 is 18 µM against Cytochrome P450 2C19; under 0.25 µM in series [11]; over 0.1 µM on Histone deacetylase 9; 0.099 µM at Histone deacetylase 4; 0.0882 µM at Histone deacetylase 5; 67.8 µM in series [14]. In series [12], the Drug metabolism result is “metabolite_detected”. Further, the outcome with MDA-MB-231 [17] was inactive. Moreover, the CLhep predicted at 2 µM in series [22] was 3.96 L/h/kg.
